Measured values published in patent US4666897A, “Inhibition of mammalian collagenolytic enzymes by tetracyclines” (Research Foundation of State University, priority 1983, dated 1987).

Assays:
[1] = molecular target: T1, rat PMNL collagenolytic activity (PMNL collagenase) (Rattus norvegicus, UniProt O88766); assay: Rat PMNL collagenolytic activity in vitro (14C-collagen gel lysis); type: biochemical; conditions: for Collagenolytic Activity: % ^14 C-collagen gel lyzed / effect on PMNL collagenolytic activity, in words: Table 2; for Collagenolytic Activity: % ^14 C-collagen gel lyzed: PMNL extract (30 × 10^6 PMNLs per ml) + 20 ug/ml, control extract 39.0
T1 construct: An extract of PMNLs was prepared; from tissue; host or cells: extract of peritoneal exudate polymorphonuclear leucocytes of non-diabetic rats, elicited with glycogen
T1 sequence (O88766 102-466): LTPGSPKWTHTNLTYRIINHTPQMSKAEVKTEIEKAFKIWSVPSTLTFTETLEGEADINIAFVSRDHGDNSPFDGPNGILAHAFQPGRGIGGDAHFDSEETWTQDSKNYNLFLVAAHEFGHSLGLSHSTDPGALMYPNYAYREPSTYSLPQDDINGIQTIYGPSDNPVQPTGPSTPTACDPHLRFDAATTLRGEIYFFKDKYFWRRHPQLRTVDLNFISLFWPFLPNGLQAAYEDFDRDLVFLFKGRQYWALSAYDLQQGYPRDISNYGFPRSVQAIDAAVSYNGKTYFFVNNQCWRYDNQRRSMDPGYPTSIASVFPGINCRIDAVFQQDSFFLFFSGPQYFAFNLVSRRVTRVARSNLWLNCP
Method: To test the effect of physiologic levels of minocycline (the concentration in human serum, during a therapeutic regimen, is approximately 2 ug/ml; that in the gingival crevicular fluid is 4-5 times greater; Ciancio, et. al., 1980, J. Periodontol., 51, 531-534) on mammalian collagenolytic activity in vitro, peritonealexudate polymorphomuclear leucocytes (PMNLs) were collected from 15 mole (non-diabetic) rats 4 hours after I.P. injection of 0.15% glycogen. An extract of PMNLs was prepared, 250 μl aliquots of this extract were incubated with ^14 C-glycine labeled collagen fibrils for 14 hours at 35° C. (in the presence or absence of minocycline, or EDTA, or additional CaCl2), and collagenolytic activity was measured as described by Nicoll, et al., (Experientia., 37, 315-317).
The techniques used to measure the collagenolytic enzyme activity of gingival tissue in culture, and in polymorphonuclear leucocytes (PMNLs), are those described by Golub, et. al., (J. Dent. Res., 57, 520-525 (197)8) and Nicoll, et. al., (Experimentia, 37, 315-317, (1981)) with minor modifications.

[2] = system: fetal rat bones (radii and ulnae) in organ culture; assay: PTH-induced bone resorption in organ culture (45calcium release); type: cell-based; conditions: for effect on PTH-enhanced bone resorption, in words: concentrations 0.2-300 μg/ml
Method: The technique used to assess bone resorption is based on monitoring the release of radioactive calcium, previously incorporated by embryonic bones in vivo, during organ culture. Pregnant Sprague-Dawley rats were injected subcutaneously with 200 μCi of ^45 calcium chloride on the 18th day of gestation. The following day, the animals were killed, the fetuses removed, and the radii and ulnae dissected under aseptic conditions. […] The bones were then randomly distributed and each bone, either a radius or ulna, was incubated in 0.5 ml of culture media alone or in a media containing parathyroid hormone (PTH: human synthetic 1-34 peptide, Beckman Instruments, Inc., Palo Alto, California) added in a final concentration of 1.0 μg/ml; the experimental bones were incubated in the PTH containing medium to which was added different concentrations (0.2-300 μg/ml) of the antibiotics to be tested. The bones were cultured for 5 days, with the media being changed after day 2, and the incubation terminated. The bones were decalcified in 0.2 ml of 5% trichloroacetic acid and the ^45 calcium content of the residual bones and of the culture media was measured as described previously. (Werner and Raisz, Endocrinology, 90, 752 (1972 ) and Gomes, et. al., Calc. Tiss. Res., 19, 285 (1976)). The ^45 calcium released into the media was calculated as a percentage of the total radioactive calcium measured in the bones.

[3] = system: GCF collagenase and gingival disease in diabetic twins; assay: Human gingival crevicular fluid (GCF) study, diabetic twin brothers; type: in vivo; conditions: 7 days of treatment
Method: In a separate study involving humans, gingival crevicular fluid (GCF) samples were collected on filter paper strips inserted into 8 interproximal pockets of selected teeth in the maxillary arch of two twin brothers with juvenile-onset (insulin-dependent) diabetes mellitus. Fluid volume was immediately determined on a modified Periotron (Model 6000, Harco Electronics Ltd., Winnipeg, Canada); then incubated with 10 μl (^3 H-methyl) collagen (20,675 DPM) and 70 μl buffer (50 mM Tris-HCl, pH 7.8, containing 0.2 M sodium chloride and 5 mM calcium chloride). The GCF samples (or reagent blanks or trypsin controls) were incubated at 27° C. for 18 hours with gentle shaking. The reaction was stopped and undigested collagen precipitated by adding 10 μl 0.1 M phenanthroline in dioxane/water (1:1, v/v), 10 μl of nonradioactive methylated carrier collagen (2 mg/ml) in 50 mM Tris-HCl buffer containing 1M NaCl (pH 7.0), and 100 μl dioxane. After mixing, the radiolabeled collagen degradation products were collected by filtration and counted in a liquid scintillation spectrometer (Golub, et. al., 1976, J. Dent. Res., 55, 1049). Using this technique, the reaction blank (no enzyme or GCF added) released about 10% of the total substrate counts; 2-20 ng bacterial collagenase produced a linear increase in the release of radioactive counts from the ^3 H-collagen substrate (the 20 ng level of enzyme degraded 60% of the collagen substrate); and 50 ng trypsin released less than 1% of the counts above blank values. GCF collagenase activity was expressed as units of equivalent activity of vertebrate collagenase (obtained from New England Nuclear, Cat. No. NEK-016); 1 unit was operationally defined as the amount of enzyme that degrades 1 μg of collagen per hour at 27° C.
Four additional GCF samples were collected from other maxillary pockets of the same diabetic twin brothers on filter paper strips, their volume determined (see above), and collagenolytic activity assessed using the same procedure described above but with a different substrate (10 μl of (^3 H-propionate) collagen, NET-660, New England Nuclear Corp., Boston, Mass., 302,000 DPM).
Half of the 12 GCF samples per subject were activated by pretreatment with 1.04 uM trypsin followed by the addition of a 5-fold molar excess of soybean trypsin inhibitor. Samples were selected to be treated or not treated with trypsin by matching them for Gingival Index (Loe and Silness, Acta. Odont. Scand., 21, 533-551 (1967)), GCF flow, and for pocket depth; the clincal parameters (GI, PD) were measured immediately after GCF collection. All measurements were carried out immediately before antibiotic coverage and after 7 days of treatment with either pencillin G (lg. per day; patient three) or the tetracycline minocycline (200 mg/day; patient one).

[4] = penicillin G 1 g per day (P. D.) or minocycline 200 mg/day (K. D.)

O=C(O)CN(CCN(CC(=O)O)CC(=O)O)CC(=O)O [EDTA]
effect on PMNL collagenolytic (collagenase) activity, in words ([1]; Table 1): completely inihibited | Collagenolytic Activity: % ^14 C-collagen gel lysed ([1]; Table 1, PMNL extract + 54 mM, control extract 85.5): 3.1%

CN(C)[C@@H]1C(=O)C(C(N)=O)=C(O)[C@@]2(O)C(=O)C3=C(O)c4c(O)cccc4[C@@](C)(O)[C@H]3[C@H](O)[C@@H]12 [Terramycin, Oxytetracycline]
Collagenolytic Activity: % ^14 C-collagen gel lyzed [1]: 4.4%

CC1(C)S[C@@H]2[C@H](NC(=O)[C@H](N)c3ccccc3)C(=O)N2[C@H]1C(=O)O [ampicillin]
effect on PMNL collagenolytic activity, in words [1]: ineffective | Collagenolytic Activity: % ^14 C-collagen gel lyzed [1]: 35.7% | ^45 Calcium in Fetal Bone Released into Media (%) after 2 days incubation ([2]; Table 5, PTH + 6 μg/ml): 52.3 ± 1.9% | ^45 Calcium in fetal bone Released into media (%) after 5 days incubation ([2]; Table 5, PTH + 6 μg/ml): 92.2 ± 2.0% | ^45 Calcium in Fetal Bone Released into Media (%) after 2 days incubation ([2]; Table 5, PTH + 20 μg/ml): 52.8 ± 1.7% | ^45 Calcium in fetal bone Released into media (%) after 5 days incubation ([2]; Table 5, PTH + 20 μg/ml): 92.6 ± 0.5% | ^45 Calcium in Fetal Bone Released into Media (%) after 2 days incubation ([2]; Table 5, PTH + 40 μg/ml): 51.9 ± 2.1% | ^45 Calcium in fetal bone Released into media (%) after 5 days incubation ([2]; Table 5, PTH + 40 μg/ml): 94.2 ± 1.1% | ^45 Calcium in Fetal Bone Released into Media (%) after 2 days incubation ([2]; Table 5, PTH + 60 μg/ml): 50.9 ± 1.7% | ^45 Calcium in fetal bone Released into media (%) after 5 days incubation ([2]; Table 5, PTH + 60 μg/ml): 93.9 ± 0.7% | ^45 Calcium in Fetal Bone Released into Media (%) after 2 days incubation ([2]; Table 5, PTH + 200 μg/ml): 50.8 ± 1.8% | ^45 Calcium in fetal bone Released into media (%) after 5 days incubation ([2]; Table 5, PTH + 200 μg/ml): 91.4 ± 0.7% | effect on PTH-enhanced bone resorption, in words [2]: no detectable effect

Cc1nnc(SCC2=C(C(=O)O)N3C(=O)[C@@H](NC(=O)Cn4cnnn4)[C@H]3SC2)s1 [cefazolin]
effect on PMNL collagenolytic activity, in words [1]: ineffective | Collagenolytic Activity: % ^14 C-collagen gel lyzed [1]: 50.0% | ^45 Calcium in Fetal Bone Released into Media (%) after 2 days incubation ([2]; Table 5, PTH + 6 μg/ml): 50.8 ± 1.3% | ^45 Calcium in fetal bone Released into media (%) after 5 days incubation ([2]; Table 5, PTH + 6 μg/ml): 93.1 ± 0.5% | ^45 Calcium in Fetal Bone Released into Media (%) after 2 days incubation ([2]; Table 5, PTH + 20 μg/ml): 54.2 ± 1.4% | ^45 Calcium in fetal bone Released into media (%) after 5 days incubation ([2]; Table 5, PTH + 20 μg/ml): 93.6 ± 0.4% | ^45 Calcium in Fetal Bone Released into Media (%) after 2 days incubation ([2]; Table 5, PTH + 60 μg/ml): 54.5 ± 1.2% | ^45 Calcium in fetal bone Released into media (%) after 5 days incubation ([2]; Table 5, PTH + 60 μg/ml): 94.6 ± 1.2% | ^45 Calcium in Fetal Bone Released into Media (%) after 2 days incubation ([2]; Table 5, PTH + 120 μg/ml): 50.3 ± 3.1% | ^45 Calcium in fetal bone Released into media (%) after 5 days incubation ([2]; Table 5, PTH + 120 μg/ml): 90.2 ± 3.1% | ^45 Calcium in Fetal Bone Released into Media (%) after 2 days incubation ([2]; Table 5, PTH + 200 μg/ml): 50.9 ± 1.3% | ^45 Calcium in fetal bone Released into media (%) after 5 days incubation ([2]; Table 5, PTH + 200 μg/ml): 92.1 ± 0.6% | effect on PTH-enhanced bone resorption, in words [2]: no detectable effect

C[C@H]1c2cccc(O)c2C(O)=C2C(=O)[C@]3(O)C(O)=C(C(N)=O)C(=O)[C@@H](N(C)C)[C@@H]3[C@@H](O)[C@@H]21 [doxycycline, Doxycycline]
Collagenolytic Activity: % ^14 C-collagen gel lyzed [1]: 4.5% | ^45 Calcium in Fetal Bone Released into Media (%) after 2 days incubation ([2]; Table 4, first column, PTH + 0.2 μg/ml): 56.6 ± 2.0% | ^45 Calcium in Fetal Bone Released into Media (%) after 2 days incubation ([2]; Table 4, first column, PTH + 2.0 μg/ml): 57.5 ± 2.5% | ^45 Calcium in Fetal Bone Released into Media (%) after 2 days incubation ([2]; Table 4, first column, PTH + 20 μg/ml): 30.6 ± 1.7% | ^45 Calcium in Fetal Bone Released into Media (%) after 2 days incubation ([2]; Table 4, first column, PTH + 200 μg/ml): 18.8 ± 1.1% | ^45 Calcium in Fetal Bone Released into Media (%) after 2 days incubation ([2]; Table 4, second column, PTH + 0.2 μg/ml): 97.1 ± 0.7% | ^45 Calcium in Fetal Bone Released into Media (%) after 2 days incubation ([2]; Table 4, second column, PTH + 2.0 μg/ml): 93.5 ± 1.7% | ^45 Calcium in Fetal Bone Released into Media (%) after 2 days incubation ([2]; Table 4, second column, PTH + 20 μg/ml): 35.3 ± 1.6% | ^45 Calcium in Fetal Bone Released into Media (%) after 2 days incubation ([2]; Table 4, second column, PTH + 200 μg/ml): 28.7 ± 0.8% | effect on PTH-enhanced bone resorption, in words [2]: inhibited bone resorption in a dose responsive manner

CC1(C)S[C@@H]2[C@H](NC(=O)Cc3ccccc3)C(=O)N2[C@H]1C(=O)O [penicillin]
GCF flow [3, 4]: little or no effect | Gram-positive and Gram-negative organisms in the pockets [3, 4]: reduced the Gram-positive but increased the Gram-negative organisms | active GCF collagenase [3, 4]: little or no effect | pocket depth [3, 4]: little or no effect | total GCF collagenase (after trypsin pretreatment) [3, 4]: appeared to increase | Gingival Index (G. I.) ([3]; penicillin G 1 g per day (patient three) or minocycline 200 mg/day (patient one)): little or no effect | effect on PTH-enhanced bone resorption, in words [2]: no detectable effect

[H]/N=C(/N)N[C@H]1[C@H](O)[C@@H](O)[C@H](O[C@@H]2O[C@@H](C)[C@](O)(C=O)[C@H]2O[C@@H]2O[C@@H](CO)[C@H](O)[C@@H](O)[C@@H]2NC)[C@@H](N/C(N)=N\[H])[C@@H]1O [streptomycin]
effect on PTH-enhanced bone resorption, in words [2]: no detectable effect

PTH: parathyroid hormone, human synthetic 1-34 peptide, Beckman Instruments, final concentration 1.0 μg/ml
increase of the loss of radiolabeled calcium by addition of PTH ([2]; PTH 1.0 μg/ml versus culture media alone, Tables 3-5): 90-160% | ^45 Calcium in Fetal Bone Released into Media (%) after 2 days incubation ([2]; Table 3, PTH alone 1.0 μg/ml, no addition 19.9 ± 1.5): 46.1 ± 1.9% | ^45 Calcium in fetal bone Released into media (%) after 5 days incubation ([2]; Table 3, PTH alone 1.0 μg/ml, no addition 27.6 ± 1.3): 73.3 ± 1.3% | ^45 Calcium in Fetal Bone Released into Media (%) after 2 days incubation ([2]; Table 4, PTH alone, no addition 27.1 ± 1.0): 61.6 ± 1.2% | ^45 Calcium in Fetal Bone Released into Media (%) after 2 days incubation ([2]; Table 4, PTH alone, no addition 50.8 ± 1.8): 97.9 ± 0.7% | ^45 Calcium in Fetal Bone Released into Media (%) after 2 days incubation ([2]; Table 5, PTH alone, no addition 22.4 ± 0.7): 51.2 ± 1.4% | ^45 Calcium in fetal bone Released into media (%) after 5 days incubation ([2]; Table 5, PTH alone, no addition 46.7 ± 3.0): 91.9 ± 1.7%
